# Assay results: patent US10434147B2, “Treatment type 2 diabetes mellitus patients” (Sanofi-Aventis Deutschland GmbH, priority 2015, dated 2019)
# Assays:
# [1] = system: obese type 2 diabetes mellitus patients poorly controlled with a basal insulin alone or with one to three oral anti-diabetic drugs; assay: 12-week insulin glargine titration (run-in); type: in vivo, human; settings: 12 weeks titration, optionally with metformin
# [2] = system: Patients with Type 2 Diabetes Insufficiently Controlled with Insulin Glargine with or without Metformin; assay: Body weight, 26-week study; type: in vivo, human; settings: once daily or three times daily; in words
# Source text: FIG. 6—Graphical study design. ^1 Insulin glargine should be injected subcutaneously once daily at dinner or breakfast time (according to patient's/investigators' preference). […] Meal used for insulin glulisine dosing should remain the same throughout the 26-week treatment period. ^4 Injection of insulin glulisine prior to breakfast, lunch and dinner.
# Co-primary endpoints at 26 weeks were (1) non-inferiority (95% CI upper bound <0.4%) in HbA1c reduction with LIXI vs GLU-1 and (2) for LIXI vs GLU-3, either non-inferiority in HbA1c reduction (2a) OR superiority (one-sided α≤0.025) in body weight change (2b). FPG, PPG, IG dose, composite outcomes, AEs, and hypoglycemia were assessed.
Substance,fasting glucose plasma concentration after titration of insulin glargine ([1]; initial reduction from 9.16 mmol/L) [mmol/L],HbA1c after titration of insulin glargine ([1]; initial reduction from 8.51%) [%],Effect of the comparative treatment on body weight [2]
Gly(A21)-Arg(B31)-Arg(B32) human insulin [insulin glargine],6.91,7.87,–
"insulin glulisine: prandial insulin, comparative treatment once daily or three times daily",–,–,significant weight gain
